Blank lines part the entries; values can stand above or below the compound they belong to. Active and inactive are the calls of the source. The calls are words filed in the database; no cut-off is given here.
Key:
Type in all cases: cell-based
[1] = molecular target: DNA topoisomerase 2-alpha (Homo sapiens, UniProt P11388); experiment: Inhibition of DNA topoisomerase 2 in human HeLa cells by kinetoplast DNA decantation assay
CV-1 [2] = experiment: Inhibition of replicative DNA polymerase gamma in SV40 virus infected african green monkey CV1 cells; details: Chlorocebus aethiops
CV-1 [3] = experiment: Inhibition of replicative DNA polymerase epsilon in SV40 virus infected african green monkey CV1 cells; details: Chlorocebus aethiops
CV-1 [4] = experiment: Inhibition of replicative DNA polymerase […] in SV40 virus infected african green monkey CV1 cells; details: Chlorocebus aethiops

DNA topoisomerase 2-alpha, sequence (P11388 whole entry): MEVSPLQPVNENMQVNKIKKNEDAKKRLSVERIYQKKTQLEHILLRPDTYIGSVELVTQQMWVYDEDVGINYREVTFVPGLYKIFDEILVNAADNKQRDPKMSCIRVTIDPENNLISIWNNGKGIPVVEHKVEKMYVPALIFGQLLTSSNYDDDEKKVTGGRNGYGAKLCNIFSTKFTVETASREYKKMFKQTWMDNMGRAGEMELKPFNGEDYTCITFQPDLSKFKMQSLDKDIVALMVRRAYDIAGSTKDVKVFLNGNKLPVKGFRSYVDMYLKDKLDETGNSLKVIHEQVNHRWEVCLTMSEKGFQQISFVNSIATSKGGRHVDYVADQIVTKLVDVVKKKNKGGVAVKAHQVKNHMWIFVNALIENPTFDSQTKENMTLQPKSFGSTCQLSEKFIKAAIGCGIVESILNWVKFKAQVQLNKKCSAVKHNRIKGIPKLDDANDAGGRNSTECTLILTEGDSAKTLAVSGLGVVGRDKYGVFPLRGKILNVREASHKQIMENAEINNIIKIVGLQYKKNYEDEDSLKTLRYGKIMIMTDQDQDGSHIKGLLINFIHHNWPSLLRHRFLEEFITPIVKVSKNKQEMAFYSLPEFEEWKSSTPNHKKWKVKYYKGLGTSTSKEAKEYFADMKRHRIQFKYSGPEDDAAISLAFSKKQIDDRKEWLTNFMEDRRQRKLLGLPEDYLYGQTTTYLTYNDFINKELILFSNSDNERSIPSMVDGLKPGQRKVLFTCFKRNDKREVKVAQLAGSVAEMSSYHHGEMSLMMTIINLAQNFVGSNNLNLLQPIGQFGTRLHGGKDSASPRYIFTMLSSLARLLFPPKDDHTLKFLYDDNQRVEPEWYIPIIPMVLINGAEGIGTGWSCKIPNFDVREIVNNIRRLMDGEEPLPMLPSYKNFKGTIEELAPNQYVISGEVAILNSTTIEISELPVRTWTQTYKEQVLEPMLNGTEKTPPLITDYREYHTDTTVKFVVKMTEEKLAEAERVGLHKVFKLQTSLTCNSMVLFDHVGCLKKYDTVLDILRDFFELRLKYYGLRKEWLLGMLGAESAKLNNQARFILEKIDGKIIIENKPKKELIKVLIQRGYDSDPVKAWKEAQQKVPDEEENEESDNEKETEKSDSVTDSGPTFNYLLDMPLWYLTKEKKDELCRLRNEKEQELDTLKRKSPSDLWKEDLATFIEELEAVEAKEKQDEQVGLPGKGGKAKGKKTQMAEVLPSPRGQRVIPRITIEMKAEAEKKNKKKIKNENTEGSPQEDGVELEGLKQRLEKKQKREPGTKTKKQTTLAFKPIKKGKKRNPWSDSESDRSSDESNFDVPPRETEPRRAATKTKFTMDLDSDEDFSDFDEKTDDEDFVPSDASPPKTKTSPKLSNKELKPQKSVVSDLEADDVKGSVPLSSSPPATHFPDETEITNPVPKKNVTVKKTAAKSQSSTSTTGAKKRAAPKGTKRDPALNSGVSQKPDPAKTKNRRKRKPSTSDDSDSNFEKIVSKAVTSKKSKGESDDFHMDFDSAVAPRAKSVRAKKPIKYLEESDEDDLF

Activity [1]: inactive
Compound: O=c1ccc2cc3ccoc3cc2o1

IC50 [1]: 404 µM
Compound: O=c1ccc2c(ccc3ccoc32)o1 [BAKUCHICIN]

Activity [1]: inactive
Compound: CC(C)=CCc1cc(-c2coc3cc(O)ccc3c2=O)ccc1O

Compound: C=C[C@@](C)(/C=C/c1ccc(O)cc1)CCC=C(C)C
Activity (CV-1 [2]): inactive
Activity (CV-1 [3]): Active
Activity (CV-1 [4]): inactive

Reference: ChEMBL document CHEMBL1141736, “DNA polymerase and topoisomerase II inhibitors from Psoralea corylifolia” (J Nat Prod, 1998)
